In patent US11179391B2, “Compound with kinase inhibitory activity and preparation method and use thereof” (priority 2017, dated 2021):
Read-outs that look alike come from different tables or passages of the source.

Legend:
Format in all cases: biochemical
CDK4/CycD3 = CDK4/CycD3 (Homo sapiens, UniProt P11802); assay: Determination of CDK activity (Caliper mobility shift, FAM-P8 peptide): CDK4; conditions: CDK4/CycD3; read-out: CDK4 enzymatic inhibitory activity (IC50)
Description: (§1) In vitro, CDK (CDK4, CDK6, CDK1, CDK2, CDK7, and CDK9) kinase activity was tested by the following method.
(§2) CDK and raw materials used here: CDK4/CycD3 (Carna, Cat. No 04-105, Lot. No 10CBS-0429 C, GST-CDK4(1-303end)/GST-CycD3(1-292end)); CDK6/cycD3 (Carna, Cat. No 04-107, Lot. No 09CBS-0622K, GST-CDK6(1-326(end))); CDK1/CyclinB (Millipore, Cat. 14-450k, Lot. No 25729U, His-CDK1+GST-cyclinB); CDK2/CycA2 (Carna, Cat. No 04-103, Lot. No 06CBS-3024, GST-CDK2 (1-298(end))); CDK7/CyclinH/MAT1 (Millipore, Cat. No 14-476M, Lot. No WAB0365-A, His-CDK7+GST-MAT1+cyclinH); CDK9/cyclinTl (Millipore, Cat. No 14-685K, Lot. No. 2476163-A, His-CDK9+cyclinTl); Peptide FAM-P8 (GL Biochem, Cat. No. 112396, Lot. No. P100804-XZ112396); ATP (Sigma, Cat. No. A7699-1G, CAS No. 987-65-5); DMSO (Sigma, Cat. No. D2650, Lot. No. 474382); EDTA (Sigma, Cat. No. E5134, CAS No. 60-00-4); 96-well plate (Corning, Cat. No. 3365, Lot. No. 22008026); 384-well plate (Corning, Cat. No. 3573, Lot. No. 12608008); Staurosporine (Sigma, Cat. No. S4400-1MG, Lot. No. 046K4080).
(§3) 1. Prepared 1× Kinase Buffer and Stop Buffer for the Test
2) 1× Kinase Base Buffer (CDK4).
(§4) 1) Diluted the compound to 50 times of the maximum concentration with 100% DMSO. For example, if the desired maximum inhibitory concentration is 10 μM, then a DMSO solution of 500 μM concentration is required.
(§5) 2) Transferred the compound to a 96-well plate and serially diluted the compound from a 100% DMSO solution at a ratio of 30 μm to 60 μm for a total of 10 concentrations gradients. 3) Transferred 100 μm of 100% DMSO to two empty wells as a no compound control and a no enzyme control.
(§6) 4) Prepared intermediate plate and transferred the compound of 10 μm concentration from the original plate to the intermediate plate, and then 90 μm of 1× kinase buffer was added and mixed by shaking for 10 min.
(§7) 4) Preparing intermediate plate and transferred the compound of […] concentration from the original plate to the intermediate plate, and then 90 μm of 1× kinase buffer was added and mixed by shaking for 10 min.
(§8) 1) Transferred 5 μm of each compound from the 96-well intermediate plate to a 384-well plate. For example, A1 of the 96-well plate was transferred to A1 and A2 of the 384-well plate. A2 of the 96-well plate was transferred to A3 and A4 of the 384-well plate, and so on.
(§9) 1) Prepared a 2.5× enzyme solution: added kinase into 1× kinase base buffer.
(§10) 2) Prepared a 2.5× peptide solution: added FAM-labeled peptide and ATP into the 1× kinase base buffer.
(§11) 3) Transferred the 2.5× enzyme solution to the assay plate: Assay plate already contained 5 μm of 10% DMSO and transferred 10 μm of 2.5× enzyme solution to each well.
(§12) 4) Incubated at room temperature for 10 min.
(§13) 5) Transferred the 2.5× peptide solution to the assay plate: added 10 μm of 2.5× peptide solution to each well of the 384-well assay plate.
(§14) 6) Kinase reaction and termination: incubated at 28° C. for a specified period and added 25 μm of stop buffer to stop the reaction.
(§15) 5. Caliper Reading: Collect Data on Caliper.
(§16) 1) Copied conversion data from Caliper program and Converted conversion values to inhibition values: Inhibition rate (%)=(1−OD value of the compound-OD value of the control well)/(OD value of the control empty-OD value of the control well)*100%.
(§17) 2) Fitted the data in XLFit excel add-in version 4.3.1 to give the corresponding IC50 values.

CDK6/cycD3 = CDK6/cycD3 (Homo sapiens, UniProt Q00534); assay: Determination of CDK activity (Caliper mobility shift, FAM-P8 peptide): CDK6; conditions: CDK6/cycD3; read-out: CDK6 enzymatic inhibitory activity (IC50)
Description: as §1, §2, §3
(§18) 1) 1× Kinase Base Buffer (CDK1, 2, and 6).
as §4, §5, §6, §7, §8, §9, §10, §11, §12, §13, §14, §15, §16, §17

CDK1/CyclinB = CDK1/CyclinB (Homo sapiens, UniProt P06493); assay: Determination of CDK activity (Caliper mobility shift, FAM-P8 peptide): CDK1; conditions: CDK1/CyclinB; read-out: CDK1 enzymatic inhibitory activity (IC50)
Description: as §1, §3, §18, §4, §5
(§19) 1) Transferred 5 μm of each compound from the 96-well intermediate plate to a 384-well plate. […] A2 of the 96-well plate was transferred to A3 and A4 of the 384-well plate, and so on.
as §9, §10, §11, §12, §13, §14, §15, §16, §17

CDK2/CycA2 = CDK2/CycA2 (Homo sapiens, UniProt P24941); assay: Determination of CDK activity (Caliper mobility shift, FAM-P8 peptide): CDK2; conditions: CDK2/CycA2; read-out: CDK2 enzymatic inhibitory activity (IC50)
Description: as §1, §3, §18, §4, §5, §19, §9, §10, §11, §12, §13, §14, §15, §16, §17

CDK7/CyclinH/MAT1 = CDK7/CyclinH/MAT1 (Homo sapiens, UniProt P50613); assay: Determination of CDK activity (Caliper mobility shift, FAM-P8 peptide): CDK7; conditions: CDK7/CyclinH/MAT1; read-out: CDK7 enzymatic inhibitory activity (IC50)
Description: as §1, §2, §3
(§20) 3) 1× Kinase Base Buffer (CDK7 and 9).
as §4, §5, §6, §7, §8, §9, §10, §11, §12, §13, §14, §15, §16, §17

CDK9/cyclinTl = CDK9/cyclinTl (Homo sapiens, UniProt P50750); assay: Determination of CDK activity (Caliper mobility shift, FAM-P8 peptide): CDK9; conditions: CDK9/cyclinTl
Description: as §1, §3, §20, §4, §5, §19, §9, §10, §11, §12, §13, §14, §15, §16, §17

[1] = read-out: CDK9 enzymatic inhibitory activity (IC50)

Chain of CDK9/cyclinTl (P50750 whole entry): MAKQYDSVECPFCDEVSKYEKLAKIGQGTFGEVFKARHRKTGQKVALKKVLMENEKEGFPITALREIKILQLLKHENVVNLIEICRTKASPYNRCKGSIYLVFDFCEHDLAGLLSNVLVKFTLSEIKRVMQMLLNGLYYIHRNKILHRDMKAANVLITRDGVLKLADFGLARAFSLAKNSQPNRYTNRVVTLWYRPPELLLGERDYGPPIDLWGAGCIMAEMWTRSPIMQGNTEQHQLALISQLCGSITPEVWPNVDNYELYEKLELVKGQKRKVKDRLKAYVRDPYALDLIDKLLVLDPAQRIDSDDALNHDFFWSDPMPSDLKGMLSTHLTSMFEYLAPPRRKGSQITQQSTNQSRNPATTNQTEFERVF
Chain of CDK9/cyclinTl (O60563 whole entry partner): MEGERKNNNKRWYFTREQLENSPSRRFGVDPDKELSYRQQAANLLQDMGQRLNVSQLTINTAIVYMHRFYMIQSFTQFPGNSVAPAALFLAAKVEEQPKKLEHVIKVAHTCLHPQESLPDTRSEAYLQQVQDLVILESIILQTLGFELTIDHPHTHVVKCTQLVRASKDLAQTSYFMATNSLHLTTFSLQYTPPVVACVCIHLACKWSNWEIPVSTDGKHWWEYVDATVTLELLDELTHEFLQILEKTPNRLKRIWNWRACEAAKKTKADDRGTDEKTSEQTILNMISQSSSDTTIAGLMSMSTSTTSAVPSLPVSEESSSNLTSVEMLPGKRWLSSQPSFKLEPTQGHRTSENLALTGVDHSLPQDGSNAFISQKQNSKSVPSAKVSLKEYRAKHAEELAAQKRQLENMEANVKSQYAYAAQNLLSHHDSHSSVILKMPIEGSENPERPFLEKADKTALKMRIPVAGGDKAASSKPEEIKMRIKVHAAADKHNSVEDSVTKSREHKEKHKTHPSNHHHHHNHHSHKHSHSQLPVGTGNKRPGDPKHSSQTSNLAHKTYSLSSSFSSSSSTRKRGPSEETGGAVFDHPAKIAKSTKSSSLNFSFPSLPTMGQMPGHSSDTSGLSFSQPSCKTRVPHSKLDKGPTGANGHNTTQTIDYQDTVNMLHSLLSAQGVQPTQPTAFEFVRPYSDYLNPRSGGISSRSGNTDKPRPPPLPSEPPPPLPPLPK
Chain of CDK7/CyclinH/MAT1 (P50613 whole entry): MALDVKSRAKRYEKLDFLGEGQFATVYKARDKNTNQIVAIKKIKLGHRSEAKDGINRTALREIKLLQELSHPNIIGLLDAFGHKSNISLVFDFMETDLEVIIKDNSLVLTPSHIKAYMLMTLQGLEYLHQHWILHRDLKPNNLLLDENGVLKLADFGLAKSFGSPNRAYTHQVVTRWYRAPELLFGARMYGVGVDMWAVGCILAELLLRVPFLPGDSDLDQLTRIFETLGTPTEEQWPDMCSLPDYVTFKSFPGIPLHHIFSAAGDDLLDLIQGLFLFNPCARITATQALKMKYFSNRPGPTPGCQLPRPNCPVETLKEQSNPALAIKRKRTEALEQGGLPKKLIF
Chain of CDK7/CyclinH/MAT1 (P51946 whole entry partner): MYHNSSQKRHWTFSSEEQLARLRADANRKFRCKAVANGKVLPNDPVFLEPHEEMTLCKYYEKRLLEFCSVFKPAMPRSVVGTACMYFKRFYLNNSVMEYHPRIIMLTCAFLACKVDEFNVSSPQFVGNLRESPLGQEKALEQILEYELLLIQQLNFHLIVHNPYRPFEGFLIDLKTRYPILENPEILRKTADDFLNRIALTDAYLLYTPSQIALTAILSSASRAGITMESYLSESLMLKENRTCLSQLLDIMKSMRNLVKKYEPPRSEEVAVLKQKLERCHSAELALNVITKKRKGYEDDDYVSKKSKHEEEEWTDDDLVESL
Chain of CDK7/CyclinH/MAT1 (P51948 whole entry partner): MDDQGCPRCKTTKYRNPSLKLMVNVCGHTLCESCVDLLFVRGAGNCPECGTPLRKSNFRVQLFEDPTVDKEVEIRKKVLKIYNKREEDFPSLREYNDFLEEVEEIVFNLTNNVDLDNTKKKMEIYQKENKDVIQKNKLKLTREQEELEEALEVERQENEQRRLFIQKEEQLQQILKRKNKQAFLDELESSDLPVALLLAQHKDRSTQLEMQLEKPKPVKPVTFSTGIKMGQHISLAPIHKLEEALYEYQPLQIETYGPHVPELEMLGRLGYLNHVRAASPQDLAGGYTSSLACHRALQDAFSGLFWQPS
Chain of CDK1/CyclinB (P06493 whole entry): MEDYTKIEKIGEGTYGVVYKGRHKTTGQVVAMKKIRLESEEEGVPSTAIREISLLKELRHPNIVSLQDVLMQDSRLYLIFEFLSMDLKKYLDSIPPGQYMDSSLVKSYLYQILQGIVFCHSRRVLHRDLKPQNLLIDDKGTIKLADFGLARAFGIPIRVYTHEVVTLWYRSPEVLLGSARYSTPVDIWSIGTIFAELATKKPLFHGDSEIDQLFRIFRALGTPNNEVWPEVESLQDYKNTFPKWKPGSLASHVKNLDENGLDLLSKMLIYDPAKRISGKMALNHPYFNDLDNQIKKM
Chain of CDK1/CyclinB (P14635 whole entry partner): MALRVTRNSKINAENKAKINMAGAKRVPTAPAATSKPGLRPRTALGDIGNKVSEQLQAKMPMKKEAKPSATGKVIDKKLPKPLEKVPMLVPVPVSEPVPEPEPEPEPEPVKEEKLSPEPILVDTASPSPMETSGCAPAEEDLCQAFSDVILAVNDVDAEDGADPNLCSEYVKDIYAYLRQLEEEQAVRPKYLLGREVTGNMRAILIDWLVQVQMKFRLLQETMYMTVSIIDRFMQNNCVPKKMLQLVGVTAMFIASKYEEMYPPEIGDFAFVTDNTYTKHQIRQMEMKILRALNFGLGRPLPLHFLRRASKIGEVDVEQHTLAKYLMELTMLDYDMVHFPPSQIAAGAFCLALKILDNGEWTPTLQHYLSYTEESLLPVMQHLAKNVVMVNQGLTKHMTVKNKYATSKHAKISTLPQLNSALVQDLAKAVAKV
Chain of CDK6/cycD3 (Q00534 whole entry): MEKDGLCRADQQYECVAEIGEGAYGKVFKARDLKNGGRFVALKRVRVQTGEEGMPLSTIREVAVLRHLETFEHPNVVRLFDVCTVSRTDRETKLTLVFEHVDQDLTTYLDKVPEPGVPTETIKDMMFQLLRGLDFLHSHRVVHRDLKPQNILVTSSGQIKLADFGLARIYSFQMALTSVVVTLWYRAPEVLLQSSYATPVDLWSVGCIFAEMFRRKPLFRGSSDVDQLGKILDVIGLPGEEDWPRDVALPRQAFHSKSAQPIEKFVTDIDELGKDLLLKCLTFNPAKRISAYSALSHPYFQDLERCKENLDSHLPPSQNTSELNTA
Chain of CDK6/cycD3 (P30281 whole entry partner): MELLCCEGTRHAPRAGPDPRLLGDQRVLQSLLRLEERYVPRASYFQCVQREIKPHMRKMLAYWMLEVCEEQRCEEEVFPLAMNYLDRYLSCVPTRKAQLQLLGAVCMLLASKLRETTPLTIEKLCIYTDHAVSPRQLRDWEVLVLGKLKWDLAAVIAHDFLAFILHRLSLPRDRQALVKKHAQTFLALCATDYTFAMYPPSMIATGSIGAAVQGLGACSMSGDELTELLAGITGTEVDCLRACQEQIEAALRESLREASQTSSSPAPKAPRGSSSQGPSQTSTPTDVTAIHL
Chain of CDK4/CycD3 (P11802 whole entry): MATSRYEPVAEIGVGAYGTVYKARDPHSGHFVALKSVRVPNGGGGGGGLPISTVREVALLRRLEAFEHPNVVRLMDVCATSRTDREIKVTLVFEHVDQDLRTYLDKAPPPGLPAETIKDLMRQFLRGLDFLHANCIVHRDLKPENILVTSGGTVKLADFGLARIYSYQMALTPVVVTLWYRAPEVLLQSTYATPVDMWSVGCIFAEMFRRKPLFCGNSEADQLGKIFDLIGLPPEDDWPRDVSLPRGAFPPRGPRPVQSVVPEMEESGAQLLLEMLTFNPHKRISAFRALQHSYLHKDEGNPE
Chain of CDK4/CycD3 (P30281 whole entry partner): as the sequence (P30281 whole entry partner) above

Structure (SMILES)	IC50 (CDK4/CycD3) [nM]	IC50 (CDK6/cycD3) [nM]	IC50 (CDK1/CyclinB) [nM]	IC50 (CDK2/CycA2) [nM]	IC50 (CDK7/CyclinH/MAT1) [nM]	IC50 (CDK9/cyclinTl; [1]) [nM]	IC50 (CDK9/cyclinTl; CDK9 enzymatic inhibitory activity (IC50)) [nM]
CCN1CCC(C(C)c2ccc(Nc3ncc(F)c(-c4cc(F)c5nc(C)n(C(C)C)c5c4)n3)nc2)CC1 (racemic) [Example 16, N-(5-(1-(1-ethylpiperidin-4-yl)ethyl)pyridin-2-yl)-5-fluoro-4-(4-fluoro-1-isopropyl-2-methyl-1H-benzo[d]imidazol-6-yl)pyrimidin-2-amine]	< 100	< 100	100 to 500	< 100	1000 to 10000	100 to 500	–
CCN1CCC(C(O)c2ccc(Nc3ncc(F)c(-c4cc(F)c5nc(C)n(C(C)C)c5c4)n3)nc2)CC1 (racemic) [Example 39, (1-Ethylpiperidin-4-yl)(6-((5-fluoro-4-(4-fluoro-1-isopropyl-2-methyl-1H-benzo[d]imidazol-6-yl)pyrimidin-2-yl)amino)pyridin-3-yl)methanol]	< 100	< 100	< 100	< 100	100 to 500	< 100	–
Cc1nc2c(F)cc(-c3nc(Nc4ccc([C@H](C)C5CCN(C)CC5)cn4)ncc3F)cc2n1C(C)C (single isomer, unassigned) [Example 21]	< 100	< 100	100 to 500	< 100	1000 to 10000	100 to 500	–
Cc1nc2c(F)cc(-c3nc(Nc4ccc([C@H](C)C5CCN(CC(F)(F)F)CC5)cn4)ncc3F)cc2n1C(C)C [Example 85]	< 100	< 100	100 to 500	< 100	1000 to 10000	100 to 500	–
CCN1CCC(=C(C)c2ccc(Nc3ncc(F)c(-c4cc(F)c5nc(C)n(C(C)C)c5c4)n3)nc2)CC1 [Example 58, N-(5-(1-(1-ethylpiperidin-4-ylidene)ethyl)pyridin-2-yl)-5-fluoro-4-(4-fluoro-1-isopropyl-2-methyl-1H-benzo[d]imidazol-6-yl)pyrimidin-2-amine]	< 100	100 to 500	500 to 1000	100 to 500	1000 to 10000	100 to 500	–
Cc1nc2c(F)cc(-c3nc(Nc4ccc([C@H](C)C5CCN(CCO)CC5)cn4)ncc3F)cc2n1C(C)C [Example 77]	< 100	< 100	100 to 500	< 100	1000 to 10000	100 to 500	–
CC[C@H](c1ccc(Nc2ncc(F)c(-c3cc(F)c4nc(C)n(C(C)C)c4c3)n2)nc1)C1CCN(CC)CC1 [Example 26]	100 to 500	100 to 500	500 to 1000	500 to 1000	1000 to 10000	500 to 1000	–
C=C(c1ccc(Nc2ncc(F)c(-c3cc(F)c4nc(C)n(C(C)C)c4c3)n2)nc1)C1CCNCC1 [Example 34]	100 to 500	100 to 500	500 to 1000	100 to 500	1000 to 10000	100 to 500	–
Cc1nc2c(F)cc(-c3nc(Nc4ccc(C=C5CCN(C)CC5)cn4)ncc3F)cc2n1C(C)C [Example 60]	< 100	100 to 500	500 to 1000	100 to 500	1000 to 10000	100 to 500	–
Cc1nc2c(F)cc(-c3nc(Nc4ccc(C(C)C5CCNCC5)cn4)ncc3F)cc2n1C(C)C (single isomer, unassigned) [Example 19, (R or S)-5-fluoro-4-(4-fluoro-1-isopropyl-2-methyl-1H-benzo[d]imidazol-6-yl)-N-(5-(1-(piperidin-4-yl)ethyl)pyridin-2-yl) pyrimidin-2-amine]	100 to 500	< 100	100 to 500	100 to 500	1000 to 10000	100 to 500	–
CCN1CCC(C(OC(C)=O)c2ccc(Nc3ncc(F)c(-c4cc(F)c5nc(C)n(C(C)C)c5c4)n3)nc2)CC1 (single isomer, unassigned) [Example 72, (R or S)-(1-ethylpiperidin-4-yl) (6-((5-fluoro-4-(4-fluoro-1-isopropyl-2-methyl-1H-benzo[d]imidazol-6-yl)pyrimidin-2-yl)amino)pyridin-3-yl) methyl acetate]	< 100	< 100	100 to 500	< 100	1000 to 10000	100 to 500	–
CCN1CCC([C@H](OC)c2ccc(Nc3ncc(F)c(-c4cc(F)c5nc(C)n(C(C)C)c5c4)n3)nc2)CC1 [Example 46]	< 100	100 to 500	100 to 500	< 100	1000 to 10000	100 to 500	–
CC[C@@H](c1ccc(Nc2ncc(F)c(-c3cc(F)c4nc(C)n(C(C)C)c4c3)n2)nc1)N1CCN(C)CC1 [Example 6]	< 100	100 to 500	10000 to 100000	1000 to 10000	1000 to 10000	–	1000 to 10000
Cc1nc2c(F)cc(-c3nc(Nc4ccc([C@H](O)C5CCNCC5)cn4)ncc3F)cc2n1C(C)C [Example 43]	< 100	100 to 500	100 to 500	100 to 500	500 to 1000	100 to 500	–
